Assay results: ChEMBL document CHEMBL1201862, “PubChem BioAssay data set” (2004)
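Cultured in 96-well plates, cells were exposed to test compound for 48 hours across five concentrations. Abbreviation: GI50, concentration required for 50% inhibition of growth.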 Calls of active or inactive are those of the source. Rule as the data show it: active = GI50 up to about 1.1 µM and inactive = higher.

Assays:
Assay in all cases: growth of human tumour cells (NCI), 48 h
HT-29 = system: HT-29
HCT-116 = system: HCT-116
MDA-MB-231 = system: MDA-MB-231
MCF7 = system: MCF7
SK-MEL-28 = system: SK-MEL-28
SK-MEL-2 = system: SK-MEL-2
SW-620 = system: SW-620
NCI-H460 = system: NCI-H460
SF-539 = system: SF-539
A498 = system: A498
COLO 205 = system: COLO 205
HL-60 = system: HL-60
BT-549 = system: BT-549
SK-OV-3 = system: SK-OV-3
OVCAR-8 = system: OVCAR-8
OVCAR-5 = system: OVCAR-5
SK-MEL-5 = system: SK-MEL-5
MDA-MB-435 = system: MDA-MB-435
MOLT-4 = system: MOLT-4
UO-31 = system: UO-31

CC1OC(OC2C(O[C@H]3CC[C@@]4(C)C(=CC[C@H]5[C@@H]6C[C@@H]7O[C@]8(CC[C@@H](C)CO8)[C@@H](C)[C@@H]7[C@@]6(C)CC[C@@H]54)C3)OC(CO)C(OC3OC(CO)C(O)C3O)C2O)C(O)C(O)C1O (stereo not given in full)
GI50 (HT-29): 0.805 µM (active) | GI50 (HCT-116): 0.851 µM (active) | GI50 (MDA-MB-231): 0.8 µM (active) | GI50 (MCF7): 0.774 µM (active) | GI50 (SK-MEL-28): 0.605 µM (active) | GI50 (SK-MEL-2): 1.01 µM (active) | GI50 (SW-620): 0.766 µM (active) | GI50 (NCI-H460): 0.438 µM (active) | GI50 (SF-539): 0.644 µM (active) | GI50 (A498): 0.881 µM (active) | GI50 (COLO 205): 0.6 µM (active) | GI50 (HL-60): 0.964 µM (active) | GI50 (BT-549): 0.975 µM (active) | GI50 (SK-OV-3): 0.94 µM (active) | GI50 (OVCAR-8): 0.535 µM (active) | GI50 (OVCAR-5): 0.8 µM (active) | GI50 (SK-MEL-5): 0.746 µM (active) | GI50 (MDA-MB-435): 0.869 µM (active) | GI50 (MOLT-4): 0.785 µM (active) | GI50 (UO-31): 0.798 µM (active)

COC(=O)[C@H](Cc1ccccc1)NC(=O)c1ccc(CNC(=O)/C=C/c2csc(-c3ccccc3)n2)cc1
GI50 (HT-29): 7.38 µM (inactive) | GI50 (HCT-116): 5.04 µM (inactive) | GI50 (MDA-MB-231): 10.9 µM (inactive) | GI50 (MCF7): 4.5 µM (inactive) | GI50 (SK-MEL-28): 3.18 µM (inactive) | GI50 (SK-MEL-2): 2.81 µM (inactive) | GI50 (SW-620): 7.33 µM (inactive) | GI50 (NCI-H460): 11.8 µM (inactive) | GI50 (SF-539): 2.04 µM (inactive) | GI50 (A498): 16.1 µM (inactive) | GI50 (COLO 205): 7.13 µM (inactive) | GI50 (HL-60): 0.275 µM (active) | GI50 (BT-549): 29.9 µM (inactive) | GI50 (SK-OV-3): 23.7 µM (inactive) | GI50 (OVCAR-8): 11.1 µM (inactive) | GI50 (OVCAR-5): 38.5 µM (inactive) | GI50 (SK-MEL-5): 4.22 µM (inactive) | GI50 (MDA-MB-435): 2.83 µM (inactive) | GI50 (MOLT-4): 1.75 µM (inactive) | GI50 (UO-31): 8.2 µM (inactive)

N#CSc1ccc(S(N)(=O)=O)cc1
GI50 (HT-29): 82 µM (inactive) | GI50 (HCT-116): 44.5 µM (inactive) | GI50 (MDA-MB-231): 44.6 µM (inactive) | GI50 (MCF7): 35.6 µM (inactive) | GI50 (SK-MEL-28): 76.7 µM (inactive) | GI50 (SK-MEL-2): 46.5 µM (inactive) | GI50 (SW-620): 23.9 µM (inactive) | GI50 (NCI-H460): > 100 µM (inactive) | GI50 (SF-539): 25.1 µM (inactive) | GI50 (A498): > 100 µM (inactive) | GI50 (COLO 205): 71.1 µM (inactive) | GI50 (HL-60): 14.3 µM (inactive) | GI50 (BT-549): > 100 µM (inactive) | GI50 (SK-OV-3): > 100 µM (inactive) | GI50 (OVCAR-8): 44.8 µM (inactive) | GI50 (OVCAR-5): 59.8 µM (inactive) | GI50 (SK-MEL-5): 75.2 µM (inactive) | GI50 (MDA-MB-435): 33.3 µM (inactive) | GI50 (MOLT-4): 1 µM (active) | GI50 (UO-31): 19.4 µM (inactive)

COc1ccc(CC2c3cc(OC)c(OC)cc3CC[N+]2(C)C)cc1OC (stereo not given)
GI50 (HT-29): > 100 µM (inactive) | GI50 (HCT-116): > 100 µM (inactive) | GI50 (MDA-MB-231): > 100 µM (inactive) | GI50 (MCF7): > 100 µM (inactive) | GI50 (SK-MEL-28): > 100 µM (inactive) | GI50 (SK-MEL-2): > 100 µM (inactive) | GI50 (SW-620): > 100 µM (inactive) | GI50 (NCI-H460): > 100 µM (inactive) | GI50 (SF-539): > 100 µM (inactive) | GI50 (A498): > 100 µM (inactive) | GI50 (COLO 205): > 100 µM (inactive) | GI50 (HL-60): > 100 µM (inactive) | GI50 (BT-549): > 100 µM (inactive) | GI50 (SK-OV-3): > 100 µM (inactive) | GI50 (OVCAR-8): > 100 µM (inactive) | GI50 (OVCAR-5): > 100 µM (inactive) | GI50 (SK-MEL-5): > 100 µM (inactive) | GI50 (MDA-MB-435): > 100 µM (inactive) | GI50 (MOLT-4): > 100 µM (inactive) | GI50 (UO-31): > 100 µM (inactive)

COC(=O)[C@]12CCC(C)(C)C[C@H]1[C@H]1C(=O)C=C3[C@@]4(C)C=C(C#N)C(=O)C(C)(C)[C@@H]4CC[C@@]3(C)[C@]1(C)CC2 [BARDOXOLONE METHYL]
GI50 (HT-29): 0.0552 µM (active) | GI50 (HCT-116): 0.0131 µM (active) | GI50 (MDA-MB-231): 0.0301 µM (active) | GI50 (MCF7): < 0.0107 µM (active) | GI50 (SK-MEL-28): 0.0759 µM (active) | GI50 (SK-MEL-2): 0.027 µM (active) | GI50 (SW-620): 0.0219 µM (active) | GI50 (NCI-H460): 0.0205 µM (active) | GI50 (SF-539): 0.0419 µM (active) | GI50 (A498): 0.046 µM (active) | GI50 (COLO 205): 0.0199 µM (active) | GI50 (HL-60): < 0.0138 µM (active) | GI50 (BT-549): 0.0339 µM (active) | GI50 (SK-OV-3): 0.126 µM (active) | GI50 (OVCAR-8): 0.0199 µM (active) | GI50 (OVCAR-5): 0.04 µM (active) | GI50 (SK-MEL-5): 0.0286 µM (active) | GI50 (MDA-MB-435): 0.0164 µM (active) | GI50 (MOLT-4): < 0.01 µM (active) | GI50 (UO-31): 0.0818 µM (active)
